Experimental data taken from US20230364032A1, “USE OF 2-HOBA TO TREAT ATHEROSCLEROSIS” (Vanderbilt University, priority 2020, published 2023).
Entries after “also recorded” stand apart in the source; their conditions may differ.

Tests used:
[1] = test system: atherosclerotic lesions of Ldlr−/− mice; experiment: Masson's Trichrome staining of lesions (collagen, fibrous cap, necrotic area); assay type: in vivo, mouse
Source text: Masson's Trichrome Staining was applied for measurement of atherosclerotic lesion collagen content, fibrous cap thickness and necrotic core size following the manufacturer's instructions (Sigma) and as previously described^30. Briefly, 5 μm cross-sections of proximal atherosclerotic aorta root were fixed with Bouin's solution, stained with hematoxylin for nuclei (black) and biebrich scarlet and phosphotungstic/phosphomolybdic acid for cytoplasm (red), and aniline blue for collagen (blue). Images were captured and analyzed for collagen content, atherosclerotic cap thickness and necrotic core by ImageJ software as described previously^30. The necrotic area is normalized to the total lesion area and is expressed as the % necrotic area.

[2] = test system: MDA- and IsoLG-lysyl adducts; experiment: Aorta dilysyl-MDA crosslinks and IsoLG-lysyl adducts by LC/MS/MS; assay type: in vivo, mouse; conditions: Ldlr−/− mice
Procedure: Isolation and LC/MS measurement of isolevuglandin-lysyl-lactam (IsoLG-Lys) adducts from aorta of 2-HOBA and 4-HOBA treated Ldlr^−/− mice were performed using a Waters Xevo-TQ-Smicro triple quadrupole mass spectrometer as previously described^69.
Samples (around 1 mg of protein) were digested with proteases as previously described for lysyl-lactam adducts^70. Five nanograms of ^13C6-dilysyl-MDA crosslink standard were added to each cell sample and dilysyl-MDA crosslinks were purified as previously described^71. The dilysyl-MDA crosslink was quantified by isotopic dilution by LC-EST/MS/MS as previously described^71.

NCc1ccccc1O [2-HOBA, 2-hydroxybenzylamine]
features of stable atherosclerotic plaques [1]: promotes features of stable atherosclerotic plaques
increase of collagen content of the proximal aorta ([1]; compared to 4-HOBA): 2.6 fold
increase of collagen content of the proximal aorta ([1]; compared to vehicle): 2.7 fold
decrease of % of necrotic area in the proximal aorta ([1]; versus 4-HOBA): 73.5%
fibrous cap thickness, fold greater ([1]; versus 4-HOBA): 2.29 fold
MDA and IsoLG adduct content of atherosclerotic lesions/aortas [2]: decreases; also recorded: markedly reduced
decrease of whole aorta IsoLG-lysyl adduct content ([2]; compared to 4-HOBA treatment): 23%
decrease of whole aorta MDA-lysyl adduct content ([2]; compared to 4-HOBA treatment): 59%
